Measurements taken from patent US11613531B2, “Inhibitors of RHO associated coiled-coil containing protein kinase” (Kadmon Corporation, LLC, priority 2017, dated 2023).
Where “and” joins values, the source holds several entries; their conditions need not be identical. Identical values can stand only once. Like-named read-outs stand apart in the source and are kept apart here.

Experiments:
[1] = tested on: ppMlc (T18/S19) levels in A7R5 cells; test: A7R5 in-cell ELISA (pMLC); format: cell-based, Rat; conditions: for IC50 / inhibition at 10 µM / inhibition at 1 µM: Rattus norvegicus, A7R5, A7R5 cells; for inhibition at 10 µM / inhibition at 1 µM: read-out: pMLC % inh A7R5 @ [conc]; for inhibition at 1 µM: 1 μM compound
Outline: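 A7R5 rat aortic smooth muscle cells seeded 24 h, then treated 90 min with a 9-point 2-fold compound dilution series. Fixed cells probed for ppMlc (T18/S19) by colorimetric in-cell ELISA; cellular IC50 from nonlinear regression curve fit.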

[2] = molecular target: Recombinant ROCK1 (amino acids 1-535) (Homo sapiens (Human), UniProt Q13464); test: Z′-Lyte kinase assay, ROCK1; format: biochemical; conditions: for inhibition at 3 µM: 3 μM compound; for inhibition at 3 µM / inhibition at 0.5 µM: read-out: ROCK1 % inh. @ [conc]; for inhibition at 0.5 µM: 0.5 μM compound
Chain of Recombinant ROCK1 (amino acids 1-535) (Q13464 1-535): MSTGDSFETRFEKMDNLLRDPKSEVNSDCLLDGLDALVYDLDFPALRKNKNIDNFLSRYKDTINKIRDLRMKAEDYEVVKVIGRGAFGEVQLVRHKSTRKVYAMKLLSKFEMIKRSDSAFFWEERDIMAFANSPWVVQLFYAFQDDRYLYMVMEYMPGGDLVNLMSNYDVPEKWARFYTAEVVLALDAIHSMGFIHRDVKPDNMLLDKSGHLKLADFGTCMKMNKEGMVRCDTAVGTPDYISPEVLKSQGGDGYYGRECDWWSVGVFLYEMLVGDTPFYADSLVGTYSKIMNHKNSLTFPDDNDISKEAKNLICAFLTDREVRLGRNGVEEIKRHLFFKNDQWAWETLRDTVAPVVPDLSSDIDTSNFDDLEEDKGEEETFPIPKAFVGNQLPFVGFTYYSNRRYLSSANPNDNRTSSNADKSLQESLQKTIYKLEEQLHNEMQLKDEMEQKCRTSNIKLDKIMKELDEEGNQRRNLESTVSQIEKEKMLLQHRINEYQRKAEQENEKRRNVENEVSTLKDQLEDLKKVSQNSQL
Method: Determination of Compound's ROCK Inhibitory Activity In Vitro (Z'Lyte Assay).
Recombinant ROCK1 (amino acids 1-535) and ROCK2 (amino acids 1-552) proteins were purchased from ThermoFisher Scientific. Compound's activities were measured by Z′-lyte kinase kit (ThermoFisher Scientific) and IC50 was calculated
In vitro activities for the compounds were measured with Z′-lyte kinase kit (ThermoFisher Scientific). The percent inhibition rate was calculated by normalizing the kinase activity value obtained with 1 μM compound treatment against DMSO control value and then applied to the formula, [1-(compound/DMSO)]×100%. IC50s were calculated using the nonlinear regression curve fit function of the GraphPad Prism software with kinase activities data measured with 9 points 2-fold serial dilution of compounds treatment. In cell pMLC IC50s were calculated with data obtained from A7R5 cell experiments. A7R5 cells were treated with 9 points 2-fold serial dilution of compounds and ppMlc (T18/S19) levels were determined to calculate cellular IC50 values of the compounds using the nonlinear regression curve fit function of the GraphPad Prism software. NIH3T3 cells stably expressing ACTA2-promoter-driven-luciferase were applied to measure ROCK compounds functional IC50s in cells. Cells were plated in 96 well plates to confluence and treated with 9 points serial dilution of compounds in combination with TGFβ1 for 24 hr. Luciferase activities were measured and compound's IC50s were calculated using the nonlinear regression curve fit function of the GraphPad Prism software.

[3] = molecular target: Recombinant ROCK2 (amino acids 1-552) (Homo sapiens (Human), UniProt O75116); test: Z′-Lyte kinase assay, ROCK2; format: biochemical; conditions: for inhibition at 3 µM: 3 μM compound; for inhibition at 0.5 µM: 0.5 μM compound
Chain of Recombinant ROCK2 (amino acids 1-552) (O75116 1-552): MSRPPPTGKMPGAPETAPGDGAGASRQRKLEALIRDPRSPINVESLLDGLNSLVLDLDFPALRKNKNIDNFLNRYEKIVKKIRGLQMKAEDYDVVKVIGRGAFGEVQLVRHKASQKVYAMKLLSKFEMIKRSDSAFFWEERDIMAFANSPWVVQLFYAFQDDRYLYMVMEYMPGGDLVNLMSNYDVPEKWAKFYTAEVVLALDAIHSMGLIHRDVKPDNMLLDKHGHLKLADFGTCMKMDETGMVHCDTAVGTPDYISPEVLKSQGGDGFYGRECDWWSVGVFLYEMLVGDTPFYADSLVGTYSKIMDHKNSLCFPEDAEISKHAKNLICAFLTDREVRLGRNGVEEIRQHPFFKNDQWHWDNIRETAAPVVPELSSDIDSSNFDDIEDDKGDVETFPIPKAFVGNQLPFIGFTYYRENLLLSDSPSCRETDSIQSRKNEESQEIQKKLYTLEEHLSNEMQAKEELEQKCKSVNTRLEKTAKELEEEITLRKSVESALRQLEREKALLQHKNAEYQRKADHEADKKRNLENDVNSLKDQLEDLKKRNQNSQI
Outline: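 Recombinant human ROCK1 (aa 1-535) or ROCK2 (aa 1-552) activity read by Z′-Lyte kinase assay. Percent inhibition at 1 μM compound was normalized to DMSO control; IC50 from 9-point 2-fold serial dilutions by nonlinear regression.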

[4] = 9 points 2-fold serial dilution
[5] = read-out: ROCK2 % inh. @ [conc]

SMILES | IC50 ([1]; ppMlc (T18/S19)) [nM] | inhibition at 3 µM [2] [%] | IC50 [2, 4] [nM] | inhibition at 3 µM [3, 5] [%] | IC50 [3, 4] [nM] | inhibition at 10 µM ([1]; 10 μM compound) [%] | other results
CC1CCN(c2nccc(Nc3ccc(-c4ccncc4)cc3)n2)CCN1 (centres unmarked) [Example 45, 2-(5-methyl-1,4-diazepan-1-yl)-N-(4-(pyridin-4-yl)phenyl)pyrimidin-4-amine] | 2120 | 99 | 307 | 98.8 | 649 |  | 
c1cc(Nc2ccc3[nH]ncc3c2)nc(N2CCCNCC2)n1 [Example 35, N-(2-(1,4-diazepan-1-yl)pyrimidin-4-yl)-1H-indazol-5-amine] |  | 100 |  | 98.9 |  | 68.1 | IC50 [1]: 416 nM; IC50 [2]: 16 nM; IC50 [3]: 15 nM
c1ccc(C2CCN(c3nccc(Nc4ccc5[nH]ncc5c4)n3)CCN2)cc1 (centres unmarked) [Example 63, N-(2-(5-phenyl-1,4-diazepan-1-yl)pyrimidin-4-yl)-1H-indazol-5-amine] | 25100 | 100 | > 1000 | 100 | > 1000 |  | 
CC1CCN(c2nc(Nc3ccc(-c4ccncc4)cc3)c3ccccc3n2)CCN1 (centres unmarked) [Example 239, 2-(5-methyl-1,4-diazepan-1-yl)-N-(4-(pyridin-4-yl)phenyl)quinazolin-4-amine] | 6350 | 100 | > 1000 | 100 | > 1000 |  | 
c1ccc(C2CCN(c3nccc(Nc4ccc(-c5ccncc5)cc4)n3)CCN2)cc1 (centres unmarked) [Example 271, 2-(5-phenyl-1,4-diazepan-1-yl)-N-(4-(pyridin-4-yl)phenyl)pyrimidin-4-amine] |  |  | > 1000 |  | > 1000 | 28.3 | 
CCC1CN(c2nccc(Nc3ccc(-c4ccncc4)cc3)n2)CCCN1 (centres unmarked) [Example 248, 2-(3-ethyl-1,4-diazepan-1-yl)-N-(4-(pyridin-4-yl)phenyl)pyrimidin-4-amine] | 968 | 100 | 36 | 100 | 43.9 |  | 
CC(C)C1CCN(c2nccc(Nc3ccc(-c4ccncc4)cc3)n2)CCN1 (centres unmarked) [Example 250, 2-(5-isopropyl-1,4-diazepan-1-yl)-N-(4-(pyridin-4-yl)phenyl)pyrimidin-4-amine] | 5440 |  | > 1000 |  | > 1000 | 50.4 | 
CC1CNCCCN1c1nccc(Nc2ccc3[nH]ncc3c2)n1 (centres unmarked) [Example 238, N-(2-(2-methyl-1,4-diazepan-1-yl)pyrimidin-4-yl)-1H-indazol-5-amine] | 215 |  | 55 |  | 17 | 70 | 
Cc1cc(Nc2ccc(-c3ccncc3)cc2)nc(N2CCCNC(C)C2)n1 (centres unmarked) [Example 247, 6-methyl-2-(3-methyl-1,4-diazepan-1-yl)-N-(4-(pyridin-4-yl)phenyl)pyrimidin-4-amine] | 1960 | 100 | 132 | 100 | 407 |  | 
N[C@@H]1CCN(c2nccc(Nc3ccc4[nH]ncc4c3)n2)C1 [Example 231, (R)—N-(2-(3-aminopyrrolidin-1-yl)pyrimidin-4-yl)-1H-indazol-5-amine] |  |  |  |  |  |  | pMLC % inh A7R5 @ [conc] ([1]; A7R5 cells, 10 μM compound): 94.24, % and 63.4%; IC50 [1]: 335 nM; IC50 [2]: > 10000 nM; IC50 [3]: 276 nM
Cc1cnc(N2CCNCC(C)C2)nc1Nc1ccc2[nH]ncc2c1 (centres unmarked) [Example 196, N-(5-methyl-2-(6-methyl-1,4-diazepan-1-yl)pyrimidin-4-yl)-1H-indazol-5-amine] |  |  |  |  |  |  | inhibition at 1 µM [1]: 17.6%; inhibition at 0.5 µM [2]: 37%; inhibition at 0.5 µM [3, 5]: 39%
CC(C)C1CN(c2nccc(Nc3ccc(-c4ccncc4)cc3)n2)CCCN1 (centres unmarked) [Example 251, 2-(3-isopropyl-1,4-diazepan-1-yl)-N-(4-(pyridin-4-yl)phenyl)pyrimidin-4-amine] | 614 |  | 57 |  | 160 | 66.9 | 
c1cc(Nc2ccc3[nH]ncc3c2)nc(N2CC3CNCC3C2)n1 (centres unmarked) [Example 210, N-(2-(hexahydropyrrolo[3,4-c]pyrrol-2(1H)-yl)pyrimidin-4-yl)-1H-indazol-5-amine] | 589 | 41.9 |  | 0 |  | 73.4 | 
c1cc2[nH]ncc2cc1Nc1nc(N2C3CNCC2C3)nc2c1COC2 [Example 283, 2-(3,6-diazabicyclo[3.1.1]heptan-6-yl)-N-(1H-indazol-5-yl)-5,7-dihydrofuro[3,4-d]pyrimidin-4-amine] |  |  |  |  |  |  | inhibition at 1 µM [1]: 25.8%; inhibition at 0.5 µM [2]: 101%; IC50 [3]: < 0.1 nM; inhibition at 0.5 µM [3, 5]: 101%
COc1cccc(CNC2CCCN(c3nccc(Nc4ccc5[nH]ncc5c4)n3)C2)c1 (centres unmarked) [Example 233, N-(2-(3-((3-methoxybenzyl)amino)piperidin-1-yl)pyrimidin-4-yl)-1H-indazol-5-amine] |  |  |  |  |  | 95.1 | IC50 [1]: 712 nM; IC50 [2]: > 10000 nM; IC50 [3]: 217 nM
c1cc2nc(N3CCCNCC3)nc(Nc3ccc4[nH]ncc4c3)c2s1 [Example 10, 2-(1,4-diazepan-1-yl)-N-(1H-indazol-5-yl)thieno[3,2-d]pyrimidin-4-amine] | 565 |  |  |  | 20 | 90 | inhibition at 0.5 µM [2]: 94%; inhibition at 0.5 µM [3, 5]: 98%
c1cc(Nc2ccc3[nH]ncc3c2)nc(N2CCNCC2)n1 [Example 34, N-(2-(piperazin-1-yl)pyrimidin-4-yl)-1H-indazol-5-amine] |  | 102 |  | 101 |  | 62.4 | IC50 [1]: 393 nM; IC50 [2]: 31 nM; IC50 [3]: 29 nM

Second part, led by results:

IC50 ([1]; ppMlc (T18/S19)) [nM] | inhibition at 3 µM [2] [%] | IC50 [2, 4] [nM] | inhibition at 3 µM [3, 5] [%] | IC50 [3, 4] [nM] | SMILES | inhibition at 10 µM ([1]; 10 μM compound) [%] | other results
1080 | 99 | 192 | 98.8 | 144 | CCC1CN(c2nccc(Nc3ccc4[nH]ncc4c3)n2)CCN1 (centres unmarked) [Example 58, N-(2-(3-ethylpiperazin-1-yl)pyrimidin-4-yl)-1H-indazol-5-amine] |  | 
1220 | 17.4 |  | 93.4 |  | CC1CCN(c2nccc(Nc3ccc4[nH]ncc4c3)n2)CCN1 (centres unmarked) [Example 57, N-(2-(5-methyl-1,4-diazepan-1-yl)pyrimidin-4-yl)-1H-indazol-5-amine] | 60.6 | 
561 | 89.1 | 46 | 98 | 57 | CC1CN(c2nccc(Nc3ccc4[nH]ncc4c3)n2)CCCN1 (centres unmarked) [Example 203, N-(2-(3-methyl-1,4-diazepan-1-yl)pyrimidin-4-yl)-1H-indazol-5-amine] | 63.5 | 
460 |  | 65 |  | 107 | COc1cnc(N2CCCNCC2)nc1Nc1ccc2[nH]ncc2c1 [Example 7, N-(2-(1,4-diazepan-1-yl)-5-methoxypyrimidin-4-yl)-1H-indazol-5-amine] | 98.3 | inhibition at 1 µM ([3]; 1 μM compound, read-out: ROCK2 % inh. @ [conc]): 96%
637 |  |  |  |  | CC1CN(c2ncc(Cl)c(Nc3ccc4[nH]ncc4c3)n2)CC(C)N1 (centres unmarked) [Example 189, N-(5-chloro-2-(3,5-dimethylpiperazin-1-yl)pyrimidin-4-yl)-1H-indazol-5-amine] | 33.4 | inhibition at 0.5 µM [2]: 18%; inhibition at 0.5 µM [3, 5]: 14%
1980 |  | 98 |  | 353 | CC(C)C1CN(c2nccc(Nc3ccc4[nH]ncc4c3)n2)CCCN1 (centres unmarked) [Example 65, N-(2-(3-isopropyl-1,4-diazepan-1-yl)pyrimidin-4-yl)-1H-indazol-5-amine] | 47.8 | 
